# Experimental data published in patent US20230381157A1, “RIFABUTIN FOR THE TREATMENT OF ACINETOBACTER BAUMANNII” (University of Southern California, priority 2018, published 2023).
# Where two headings read alike, the source gives them in different places.
# Test system: A. baumannii AB5075 transposon disruption mutants
# Assay: microbe, parasite or virus in culture
# Type: cell-based, Acinetobacter baumannii
# Conditions: for MIC: Acinetobacter baumannii
smiles,measurement,setting,value
CO[C@H]1/C=C/O[C@@]2(C)Oc3c(C)c(O)c4c(c3C2=O)C2=NC3(CCN(CC(C)C)CC3)NC2=C(NC(=O)/C(C)=C\C=C\[C@H](C)[C@H](O)[C@@H](C)[C@@H](O)[C@@H](C)[C@H](OC(C)=O)[C@@H]1C)C4=O [rifabutin],Rifabutin MIC,"AB06091, ABUW_2322, MHII",6.25 µg/mL
same,Rifabutin MIC,"AB06091, ABUW_2322, RPMI",0.05 µg/mL
same,Rifabutin MIC,"AB06105, disrupted gene aroP, RPMI, listed as RBT",0.05 µg/mL
same,Rifabutin MIC,"AB06383, disrupted gene hisJ, RPMI, listed as RBT",0.05 µg/mL
same,Rifabutin MIC,"AB06386, disrupted gene hisP, RPMI, listed as RBT",0.05 µg/mL
same,Rifabutin MIC,"AB06392, disrupted gene hisP, RPMI, listed as RBT",0.05 µg/mL
same,Rifabutin MIC,"AB06694, ABUW_2539 (IS4 family transposase), MHII",3.13 µg/mL
same,Rifabutin MIC,"AB06694, ABUW_2539 (IS4 family transposase), RPMI",0.05 µg/mL
same,Rifabutin MIC,"AB06695, ABUW_2539, MHII",3.13 µg/mL
same,Rifabutin MIC,"AB06695, ABUW_2539, RPMI",0.05 µg/mL
same,Rifabutin MIC,"AB06731, ABUW_2557 (hypothetical protein(epoxyqueuosine reductase QueH)), MHII",3.13 µg/mL
same,Rifabutin MIC,"AB06731, ABUW_2557 (hypothetical protein(epoxyqueuosine reductase QueH)), RPMI",0.05 µg/mL
same,Rifabutin MIC,"AB06732, ABUW_2557, MHII",6.25 µg/mL
same,Rifabutin MIC,"AB06732, ABUW_2557, RPMI",0.05 µg/mL
same,Rifabutin MIC,"AB06821, ABUW_2586 (allophanate hydrolase), MHII",3.13 µg/mL
same,Rifabutin MIC,"AB06821, ABUW_2586 (allophanate hydrolase), RPMI",0.05 µg/mL
same,Rifabutin MIC,"AB06822, ABUW_2586, MHII",3.13 µg/mL
same,Rifabutin MIC,"AB06822, ABUW_2586, RPMI",0.05 µg/mL
same,Rifabutin MIC,"AB07354, disrupted gene aroP, RPMI, listed as RBT",0.05 µg/mL
same,Rifabutin MIC,"AB07356, disrupted gene aroP, RPMI, listed as RBT",0.05 µg/mL
same,Rifabutin MIC,"AB07566, ABUW_2893 (hypothetical protein), MHII",0.78 µg/mL
same,Rifabutin MIC,"AB07566, ABUW_2893 (hypothetical protein), RPMI",0.05 µg/mL
same,Rifabutin MIC,"AB07567, ABUW_2893, MHII",0.78 µg/mL
same,Rifabutin MIC,"AB07567, ABUW_2893, RPMI",0.05 µg/mL
same,Rifabutin MIC,"AB07813, disrupted gene mtr, RPMI, listed as RBT",0.05 µg/mL
same,Rifabutin MIC,"AB09112, ABUW_3470 (Zn-dependent hydrolase), MHII",0.78 µg/mL
same,Rifabutin MIC,"AB09112, ABUW_3470 (Zn-dependent hydrolase), RPMI",0.05 µg/mL
same,Rifabutin MIC,"AB09114, ABUW_3470, MHII",0.78 µg/mL
same,Rifabutin MIC,"AB09114, ABUW_3470, RPMI",0.05 µg/mL
same,Rifabutin MIC,"AB09979, disrupted gene aroP, RPMI, listed as RBT",0.05 µg/mL
same,Rifabutin MIC,"AB09980, disrupted gene tryP, RPMI, listed as RBT",0.05 µg/mL
same,Rifabutin MIC,"AB09982, disrupted gene tryP, RPMI, listed as RBT",0.05 µg/mL
same,Rifabutin MIC,"AB10057, ABUW_3811 (DID), MHII",3.13 µg/mL
same,Rifabutin MIC,"AB10057, ABUW_3811 (DID), RPMI",0.05 µg/mL
same,Rifabutin MIC,"AB10058, ABUW_3811, MHII",3.13 µg/mL
same,Rifabutin MIC,"AB10058, ABUW_3811, RPMI",0.05 µg/mL
same,MIC,"read-out: Rifabutin MIC, AB00188, disrupted gene aroP, MHII",3.13 µg/mL
same,MIC,"read-out: Rifabutin MIC, AB00188, disrupted gene aroP, RPMI",< 0.05 µg/mL
same,MIC,"read-out: Rifabutin MIC, AB00190, disrupted gene aroP, MHII",6.25 µg/mL
same,MIC,"read-out: Rifabutin MIC, AB00190, disrupted gene aroP, RPMI",< 0.05 µg/mL
same,MIC,"read-out: Rifabutin MIC, AB00215, disrupted gene tryP, MHII",6.25 µg/mL
same,MIC,"read-out: Rifabutin MIC, AB00215, disrupted gene tryP, RPMI",< 0.05 µg/mL
same,MIC,"read-out: Rifabutin MIC, AB00216, disrupted gene tryP, MHII",1.56 µg/mL
same,MIC,"read-out: Rifabutin MIC, AB00216, disrupted gene tryP, RPMI",< 0.05 µg/mL
same,MIC,"read-out: Rifabutin MIC, AB02204, disrupted gene aroP, MHII",6.25 µg/mL
same,MIC,"read-out: Rifabutin MIC, AB02204, disrupted gene aroP, RPMI",< 0.05 µg/mL
same,MIC,"read-out: Rifabutin MIC, AB02205, disrupted gene aroP, MHII",3.13 µg/mL
same,MIC,"read-out: Rifabutin MIC, AB02205, disrupted gene aroP, RPMI",< 0.05 µg/mL
same,MIC,"read-out: Rifabutin MIC, AB03015, disrupted gene aroP, MHII",6.25 µg/mL
same,MIC,"read-out: Rifabutin MIC, AB03015, disrupted gene aroP, RPMI",< 0.05 µg/mL
same,MIC,"read-out: Rifabutin MIC, AB03608, disrupted gene hisJ, MHII",3.13 µg/mL
same,MIC,"read-out: Rifabutin MIC, AB03608, disrupted gene hisJ, RPMI",< 0.05 µg/mL
same,MIC,"read-out: Rifabutin MIC, AB03612, disrupted gene hisM, MHII",3.13 µg/mL
same,MIC,"read-out: Rifabutin MIC, AB03612, disrupted gene hisM, RPMI",< 0.05 µg/mL
same,MIC,"read-out: Rifabutin MIC, AB03616, disrupted gene hisM, MHII",6.25 µg/mL
same,MIC,"read-out: Rifabutin MIC, AB03616, disrupted gene hisM, RPMI",< 0.05 µg/mL
same,MIC,"read-out: Rifabutin MIC, AB03618, disrupted gene hisM, MHII",6.25 µg/mL
same,MIC,"read-out: Rifabutin MIC, AB03618, disrupted gene hisM, RPMI",< 0.05 µg/mL
same,MIC,"read-out: Rifabutin MIC, AB5075-UW (parent strain), MHII",6.25 µg/mL
same,MIC,"read-out: Rifabutin MIC, AB5075-UW (parent strain), RPMI",< 0.05 µg/mL
same,MIC,"read-out: Rifabutin MIC, AB06105, disrupted gene aroP, MHII",3.13 µg/mL
same,MIC,"read-out: Rifabutin MIC, AB06105, disrupted gene aroP, RPMI",< 0.05 µg/mL
same,MIC,"read-out: Rifabutin MIC, AB06383, disrupted gene hisJ, MHII",6.25 µg/mL
same,MIC,"read-out: Rifabutin MIC, AB06383, disrupted gene hisJ, RPMI",< 0.05 µg/mL
same,MIC,"read-out: Rifabutin MIC, AB06386, disrupted gene hisP, MHII",0.78 µg/mL
same,MIC,"read-out: Rifabutin MIC, AB06386, disrupted gene hisP, RPMI",< 0.05 µg/mL
same,MIC,"read-out: Rifabutin MIC, AB06392, disrupted gene hisP, MHII",0.78 µg/mL
same,MIC,"read-out: Rifabutin MIC, AB06392, disrupted gene hisP, RPMI",< 0.05 µg/mL
same,MIC,"read-out: Rifabutin MIC, AB07354, disrupted gene aroP, MHII",6.25 µg/mL
same,MIC,"read-out: Rifabutin MIC, AB07354, disrupted gene aroP, RPMI",< 0.05 µg/mL
same,MIC,"read-out: Rifabutin MIC, AB07356, disrupted gene aroP, MHII",1.56 µg/mL
same,MIC,"read-out: Rifabutin MIC, AB07356, disrupted gene aroP, RPMI",< 0.05 µg/mL
same,MIC,"read-out: Rifabutin MIC, AB07813, disrupted gene mtr, MHII",25 µg/mL
same,MIC,"read-out: Rifabutin MIC, AB07813, disrupted gene mtr, RPMI",< 0.05 µg/mL
same,MIC,"read-out: Rifabutin MIC, AB09979, disrupted gene aroP, MHII",0.78 µg/mL
same,MIC,"read-out: Rifabutin MIC, AB09979, disrupted gene aroP, RPMI",< 0.05 µg/mL
same,MIC,"read-out: Rifabutin MIC, AB09980, disrupted gene tryP, MHII",3.13 µg/mL
same,MIC,"read-out: Rifabutin MIC, AB09980, disrupted gene tryP, RPMI",< 0.05 µg/mL
same,MIC,"read-out: Rifabutin MIC, AB09982, disrupted gene tryP, MHII",6.25 µg/mL
same,MIC,"read-out: Rifabutin MIC, AB09982, disrupted gene tryP, RPMI",< 0.05 µg/mL
